SMILES strings stand for the structures. Activity calls are given as the source filed them. The rule behind the calls is not given here.

Among the data in ChEMBL document CHEMBL1128096, “Gamma-lactams and related compounds as cholesterol absorption inhibitors: homologs of the beta-lactam cholesterol absorption inhibitor SCH 484611” (1995) are L/CE values, retold here.

For one assay, the system named is Cricetinae gen. sp. In words: Tested for ability to reduce liver cholesterol ester (L/CE) levels in the cholesterol fed hamster model at a dose of 10 mg/kg. The format is functional, Cricetulus griseus.
Conditions: not given
In the case of `COc1ccc([C@@H]2[C@H](CCCc3ccccc3)C(=O)N2c2ccc(OC)cc2)cc1`, the L/CE is reported as 69%.

For the compound `COc1ccc([C@@H]2[C@@H](CCCc3ccccc3)C(=O)N2c2ccc(OC)cc2)cc1` [SCH-48461], the L/CE is recorded as 93%.

Another assay deals with Cricetinae gen. sp. In words: Ability to reduce liver cholesterol ester (L/CE) levels in the cholesterol fed hamster model at a dose of 50 mg/k.
Conditions: not given
The format is functional, Cricetulus griseus.
With `COc1ccc([C@@H]2[C@@H](CCCCc3ccccc3)CC(=O)N2c2ccc(OC)cc2)cc1`, the L/CE was 52%.

Regarding `COc1ccc([C@@H]2[C@H](CCCc3ccccc3)C(=O)N2c2ccc(OC)cc2)cc1` (racemic), the L/CE stood at 95%.

For `COc1ccc([C@@H]2[C@@H](CCc3ccccc3)OC(=O)N2c2ccccc2)cc1`, the L/CE is given as 34%.

Compound `COc1ccc([C@@H]2[C@@H](CCCc3ccccc3)S(=O)(=O)N2c2ccccc2)cc1` yielded a L/CE of 51%.

`COc1ccc([C@@H]2[C@H](CCCc3ccccc3)S(=O)(=O)N2c2ccccc2)cc1`: the L/CE turned out to be 43%.

`COc1ccc([C@@H]2[C@H](CCCc3ccccc3)CC(=O)N2c2ccc(OC)cc2)cc1` yielded a L/CE of 43%.

`COc1ccc([C@@H]2[C@H](CCCCc3ccccc3)CC(=O)N2c2ccc(OC)cc2)cc1` registered a L/CE of 30%.

The compound `COc1ccc([C@@H]2[C@@H](CCc3ccccc3)CC(=O)N2c2ccc(OC)cc2)cc1` yielded a L/CE of 24%.

`COc1ccc([C@@H]2[C@H](CCc3ccccc3)OC(=O)N2c2ccccc2)cc1` showed a L/CE of 21%.

With `COc1ccc([C@@H]2[C@@H](CCCc3ccccc3)C(=S)N2c2ccc(OC)cc2)cc1`, the L/CE was determined as 23%.

The compound `COc1ccc([C@@H]2[C@@H](CCc3ccccc3)NC(=O)N2c2ccccc2)cc1` showed a L/CE of 34%.

Consider `COc1ccc([C@@H]2[C@H](CCc3ccccc3)CC(=O)N2c2ccc(OC)cc2)cc1`, for which the L/CE was 16%.

As to `COc1ccc([C@@H]2[C@@H](CCCc3ccccc3)C(=O)N2c2ccc(OC)cc2)cc1` [SCH-48461], the L/CE came to 78%.

`COc1ccc([C@@H]2[C@@H](c3ccc4ccccc4c3)CC(=O)N2c2ccc(OC)cc2)cc1` registered a L/CE of 28%.

In turn, `COc1ccc([C@@H]2[C@H](c3ccc4ccccc4c3)CC(=O)N2c2ccc(OC)cc2)cc1` displayed a L/CE of 21%.

Regarding `COc1ccc([C@@H]2[C@@H](CCCc3ccccc3)CC(=O)N2c2ccc(OC)cc2)cc1`, the L/CE is recorded as 12%.

Consider `COc1ccc([C@@H]2[C@@H](CCCc3ccccc3)OC(=O)N2c2ccccc2)cc1`, for which the L/CE was determined as 47%.

The subject of the next assay is Cricetinae gen. sp. The assay can be described thus: Tested for ability to reduce liver cholesterol ester (L/CE) levels in the cholesterol fed hamster model at a dose of 50 mg/kg; NE: No effect. The format is functional, organism-based. On the set-up: dose 50 mg/kg. To be noted: Cricetulus griseus.
As to `COc1ccc([C@H]2CN(c3ccc(OC)cc3)C(=O)[C@@H]2CCCc2ccccc2)cc1`, the L/CE result was “inactive”.

As for `COc1ccc([C@@H]2C[C@@H](CCCCc3ccccc3)C(=O)N2c2ccccc2)cc1`, the L/CE result is “inactive”.

For the compound `COc1ccc([C@H]2C[C@@H](CCCCc3ccccc3)C(=O)N2c2ccccc2)cc1`, the L/CE entry is “inactive”.

As to `COc1ccc([C@@H]2C[C@@H](CCCc3ccccc3)C(=O)N2c2ccc(OC)cc2)cc1`, the L/CE result was “inactive”.
